# According to US20170190671A1, “BIS(ARYL)CATECHOL DERIVATIVES AS HERBICIDES” (E I DU PONT DE NEMOURS AND COMPANY, priority 2014, published 2017):
# Key:
# Type in all cases: in vivo
# [1] = tested on: kochia (Kochia scoparia); test: Test A preemergence; conditions: Bassia scoparia, pre-emergence, 240 h; for pest or weed control at 31 g/ha: 31 g ai/ha, 0 to 100 scale (0 no effect, 100 complete control), read-out: Kochia plant response rating; for pest or weed control at 125 g/ha: 125 g ai/ha, 0 to 100 scale, read-out: Plant response rating, Kochia
# Description: (§1) Seeds of plant species selected from barnyardgrass (Echinochloa crus-galli), kochia (Kochia scoparia), ragweed (common ragweed, Ambrosia elatior), Italian ryegrass (Lolium multiflorum), large (Lg) crabgrass (Digitaria sanguinalis), giant foxtail (Setaria faberii), morningglory (Ipomoea spp.), pigweed (Amaranthus retroflexus), velvetleaf (Abutilon theophrasti), wheat (Triticum aestivum), and corn (Zea mays) were planted into a blend of loam soil and sand and treated preemergence with a directed soil spray using test chemicals formulated in a non-phytotoxic solvent mixture which included a surfactant.
# (§2) At the same time, plants selected from these crop and weed species and also blackgrass (Alopecurus myosuroides), and galium (catchweed bedstraw, Galium aparine) were planted in pots containing the same blend of loam soil and sand and treated with postemergence applications of test chemicals formulated in the same manner. Plants ranged in height from 2 to 10 cm and were in the one- to two-leaf stage for the postemergence treatment. Treated plants and untreated controls were maintained in a greenhouse for approximately 10 days, after which time all treated plants were compared to untreated controls and visually evaluated for injury. Plant response ratings, summarized in Table A, are based on a 0 to 100 scale where 0 is no effect and 100 is complete control. A dash (-) response means no test result.
# [2] = tested on: Italian ryegrass (Lolium multiflorum); test: Test A preemergence; conditions: Lolium multiflorum, pre-emergence, 240 h; for pest or weed control at 31 g/ha: 31 g ai/ha, 0 to 100 scale (0 no effect, 100 complete control), read-out: Ryegrass, Italian plant response rating; for pest or weed control at 125 g/ha: 125 g ai/ha, 0 to 100 scale, read-out: Plant response rating, Ryegrass, Italian
# Description: as §1, §2
# [3] = tested on: pigweed (Amaranthus retroflexus); test: Test A preemergence; conditions: Amaranthus retroflexus, pre-emergence, 240 h; for pest or weed control at 31 g/ha: 31 g ai/ha, 0 to 100 scale (0 no effect, 100 complete control), read-out: Pigweed plant response rating; for pest or weed control at 125 g/ha: 125 g ai/ha, 0 to 100 scale, read-out: Plant response rating, Pigweed
# Description: as §1, §2
# [4] = tested on: ragweed (common ragweed, Ambrosia elatior); test: Test A preemergence; conditions: Ambrosia artemisiifolia, pre-emergence, 240 h; for pest or weed control at 31 g/ha: 31 g ai/ha, 0 to 100 scale (0 no effect, 100 complete control), read-out: Ragweed plant response rating; for pest or weed control at 125 g/ha: 125 g ai/ha, 0 to 100 scale, read-out: Plant response rating, Ragweed
# Description: as §1, §2
# [5] = tested on: giant foxtail (Setaria faberii); test: Test A preemergence; conditions: Setaria faberi, pre-emergence, 240 h; for pest or weed control at 31 g/ha: 31 g ai/ha, 0 to 100 scale (0 no effect, 100 complete control), read-out: Foxtail, Giant plant response rating; for pest or weed control at 125 g/ha: 125 g ai/ha, 0 to 100 scale, read-out: Plant response rating, Foxtail, Giant
# Description: as §1, §2
# [6] = tested on: barnyardgrass (Echinochloa crus-galli); test: Test A preemergence; conditions: Echinochloa crus-galli, pre-emergence, 240 h; for pest or weed control at 31 g/ha: 31 g ai/ha, 0 to 100 scale (0 no effect, 100 complete control), read-out: Barnyardgrass plant response rating; for pest or weed control at 125 g/ha: 125 g ai/ha, 0 to 100 scale, read-out: Plant response rating, Barnyardgrass
# Description: as §1, §2
# [7] = tested on: kochia (Kochia scoparia); test: Test A postemergence; conditions: Bassia scoparia, post-emergence, 240 h, 0 to 100 scale, read-out: Plant response rating, Kochia; for pest or weed control at 31 g/ha: 31 g ai/ha; for pest or weed control at 125 g/ha: 125 g ai/ha
# Description: as §1, §2
# [8] = tested on: blackgrass (Alopecurus myosuroides); test: Test A postemergence; conditions: Alopecurus myosuroides, post-emergence, 240 h, 0 to 100 scale, read-out: Plant response rating, Blackgrass; for pest or weed control at 31 g/ha: 31 g ai/ha; for pest or weed control at 125 g/ha: 125 g ai/ha
# Description: as §1, §2
# [9] = tested on: galium (catchweed bedstraw, Galium aparine); test: Test A postemergence; conditions: Galium, post-emergence, 240 h, 0 to 100 scale, read-out: Plant response rating, Galium; for pest or weed control at 31 g/ha: 31 g ai/ha; for pest or weed control at 125 g/ha: 125 g ai/ha
# Description: as §1, §2
# [10] = tested on: Italian ryegrass (Lolium multiflorum); test: Test A postemergence; conditions: Lolium multiflorum, post-emergence, 240 h, 0 to 100 scale, read-out: Plant response rating, Ryegrass, Italian; for pest or weed control at 31 g/ha: 31 g ai/ha; for pest or weed control at 125 g/ha: 125 g ai/ha
# Description: as §1, §2
# [11] = tested on: wheat (Triticum aestivum); test: Test A postemergence; conditions: Triticum aestivum, post-emergence, 240 h, 0 to 100 scale, read-out: Plant response rating, Wheat; for plant injury at 31 g/ha: 31 g ai/ha; for plant injury at 125 g/ha: 125 g ai/ha
# Description: as §1, §2
# [12] = tested on: pigweed (Amaranthus retroflexus); test: Test A postemergence; conditions: Amaranthus retroflexus, post-emergence, 240 h, 0 to 100 scale, read-out: Plant response rating, Pigweed; for pest or weed control at 31 g/ha: 31 g ai/ha; for pest or weed control at 125 g/ha: 125 g ai/ha
# Description: as §1, §2
# [13] = tested on: ragweed (common ragweed, Ambrosia elatior); test: Test A postemergence; conditions: Ambrosia artemisiifolia, post-emergence, 240 h, 0 to 100 scale, read-out: Plant response rating, Ragweed; for pest or weed control at 31 g/ha: 31 g ai/ha; for pest or weed control at 125 g/ha: 125 g ai/ha
# Description: as §1, §2
# [14] = tested on: giant foxtail (Setaria faberii); test: Test A postemergence; conditions: Setaria faberi, post-emergence, 240 h, 0 to 100 scale, read-out: Plant response rating, Foxtail, Giant; for pest or weed control at 31 g/ha: 31 g ai/ha; for pest or weed control at 125 g/ha: 125 g ai/ha
# Description: as §1, §2
# [15] = tested on: barnyardgrass (Echinochloa crus-galli); test: Test A postemergence; conditions: Echinochloa crus-galli, post-emergence, 240 h, 0 to 100 scale, read-out: Plant response rating, Barnyardgrass; for pest or weed control at 31 g/ha: 31 g ai/ha; for pest or weed control at 125 g/ha: 125 g ai/ha
# Description: as §1, §2
# [16] = tested on: corn (Zea mays); test: Test A postemergence; conditions: Zea mays, post-emergence, 240 h, 0 to 100 scale; for Corn plant response rating (crop injury, 0 = no effect, 100 = complete kill) at 31 g/ha: 31 g ai/ha; for Corn plant response rating (crop injury, 0 = no effect, 100 = complete kill) at 125 g/ha: 125 g ai/ha
# Description: as §1, §2
Structure (SMILES),pest or weed control at 31 g/ha [1] [%],pest or weed control at 125 g/ha [1] [%],pest or weed control at 31 g/ha [2] [%],pest or weed control at 125 g/ha [2] [%],pest or weed control at 31 g/ha [3] [%],pest or weed control at 125 g/ha [3] [%],pest or weed control at 31 g/ha [4] [%],pest or weed control at 125 g/ha [4] [%],pest or weed control at 31 g/ha [5] [%],pest or weed control at 125 g/ha [5] [%],pest or weed control at 31 g/ha [6] [%],pest or weed control at 125 g/ha [6] [%],pest or weed control at 31 g/ha [7] [%],pest or weed control at 125 g/ha [7] [%],pest or weed control at 31 g/ha [8] [%],pest or weed control at 125 g/ha [8] [%],pest or weed control at 31 g/ha [9] [%],pest or weed control at 125 g/ha [9] [%],pest or weed control at 31 g/ha [10] [%],pest or weed control at 125 g/ha [10] [%],also measured
N#Cc1cccc(Oc2ncc(Cl)cn2)c1Oc1cccnc1 [Compound 8],0,0,0,0,0,10,0,0,0,0,0,0,10,30,0,0,10,20,0,0,"plant injury at 31 g/ha [11]: 0%; plant injury at 125 g/ha [11]: 0%; pest or weed control at 31 g/ha [12]: 10%; pest or weed control at 125 g/ha [12]: 20%; pest or weed control at 31 g/ha [13]: 0%; pest or weed control at 125 g/ha [13]: 0%; pest or weed control at 31 g/ha [14]: 0%; pest or weed control at 125 g/ha [14]: 0%; pest or weed control at 31 g/ha [15]: 0%; pest or weed control at 125 g/ha [15]: 10%; Corn plant response rating (crop injury, 0 = no effect, 100 = complete kill) at 31 g/ha [16]: 0%; Corn plant response rating (crop injury, 0 = no effect, 100 = complete kill) at 125 g/ha [16]: 10%"
N#Cc1cccc(Oc2ncc(F)cn2)c1Oc1ccc(Br)cn1 [Compound 9],40,100,0,0,100,100,0,10,30,100,30,90,60,100,30,80,70,100,20,70,"plant injury at 31 g/ha [11]: 0%; plant injury at 125 g/ha [11]: 40%; pest or weed control at 31 g/ha [12]: 50%; pest or weed control at 125 g/ha [12]: 100%; pest or weed control at 31 g/ha [13]: 30%; pest or weed control at 125 g/ha [13]: 70%; pest or weed control at 31 g/ha [14]: 10%; pest or weed control at 125 g/ha [14]: 70%; pest or weed control at 31 g/ha [15]: 0%; pest or weed control at 125 g/ha [15]: 50%; Corn plant response rating (crop injury, 0 = no effect, 100 = complete kill) at 31 g/ha [16]: 0%; Corn plant response rating (crop injury, 0 = no effect, 100 = complete kill) at 125 g/ha [16]: 10%"
